The values that follow come from patent US7528274B2, “Acylthiols and component thiol compositions as anti-HIV and anti-retroviral agents” (The United States of America as represented by the …, priority 2001, dated 2009).

In one data set the test system is HIV-1RF. Put plainly: XTT cytoprotection assay, CEM-SS cells infected with HIV-1RF. In kind it is cell-based. The conditions noted are these: for EC50: read-out: EC50 (50% cytoprotection).
From the text: (§1) One exemplary means to determine antiviral activity is with CEM-SS cells and virus (e.g., HIV-1RF) (MOI=0.01) using the XTT (2,3-bis[2-methoxy-4-nitro-5-sulfophenyl]-5-[(phenylamino)carbonyl]-2H-tetrazolium hydroxide) cytoprotection assay, as described by Rice (1993) PNAS 90:9721-9724, and Rice (1997) Antimicrob. Agents Chemother. […] Briefly, cells are infected with HIV-1RF (or other virus to be tested) in the presence of various dilutions of test compounds or control compounds. The cultures are incubated for seven days. […] The cell death is measured by XTT dye reduction. XTT is a soluble tetrazolium dye that measures mitochondrial energy output, similar to MTT. […] Individual assays are done in duplicate using a sister plate method.
as §1, with “{2,3-bis[2-methoxy-4-nitro-5-sulfophenyl]-5- -[(phenylamino)carbonyl]-2H-tetrazolium hydroxide}” for “(2,3-bis[2-methoxy-4-nitro-5-sulfophenyl]-5-[(phenylamino)carbonyl]-2H-tetrazolium hydroxide)”, “Proc. Natl. Acad. Sci. USA 90: 9721-9724,” for “PNAS 90:9721-9724,”, “Agents &” for “Agents”, “and controls.” for “or control compounds.”, “method. […] Compound numbers therein refer to the numbers used in FIG. 1.” for “method.”

Data set [1] in a line: XTT assay, cytotoxicity (cellular growth inhibition) in CEM-SS cells. In kind it is cell-based. The note with it: human.
From the text: as §1
as §1, with “{2,3-bis[2-methoxy-4-nitro-5-sulfophenyl]-5- -[(phenylamino)carbonyl]-2H-tetrazolium hydroxide}” for “(2,3-bis[2-methoxy-4-nitro-5-sulfophenyl]-5-[(phenylamino)carbonyl]-2H-tetrazolium hydroxide)”, “Proc. Natl. Acad. Sci. USA 90: 9721-9724,” for “PNAS 90:9721-9724,”, “Agents &” for “Agents”, “and controls.” for “or control compounds.”, “method. […] Compound numbers therein refer to the numbers used in FIG. 1.” for “method.”
(Tetrazolium assays rely on reduction of a dye to a coloured formazan, in cell work by metabolically active cells.)

The mark [2] stands for this setting: Human immunodeficiency virus 1, 168 h, HIV-1RF, CEM-SS cells, seven days, XTT.
Setting [3] is: Human immunodeficiency virus 1, CEM-SS, 168 h.

Like-named read-outs stand apart in the source and are kept apart here.

In the case of `NC(=O)CCNC(=O)c1ccccc1SC(=O)c1ccccc1` [Compound 8], the “Therapeutic Index” value in the data set with HIV-1RF (HIV-1RF, CEM-SS cells) was 205. Moreover, the half-maximal effective concentration (EC50) with HIV-1RF (setting [2]) was found to be 3.3 µM. For the same compound, inhibition in data set [1] was half-maximal at 676 µM (IC50 at 7 days).
Turning to `COc1ccccc1C(=O)Sc1ccccc1C(=O)NCCC(N)=O` [Compound 9], in the data set on HIV-1RF (HIV-1RF, CEM-SS cells), the “Therapeutic Index” value was determined as 298. Moreover, in the data set on HIV-1RF (setting [2]), the EC50 was 2.7 µM. In data set [1], this compound registered an IC50 at 7 days of 790 µM.
Taken in the same sequence, the figures for `COc1cc(C(=O)Sc2ccccc2C(=O)NCCC(N)=O)cc(OC)c1OC` [Compound 10] were greater than 53, 3.8 µM and greater than 200 µM.
Taken in the same sequence, the figures for `COc1ccc(C(=O)Sc2ccccc2C(=O)NCCC(N)=O)cc1` [Compound 13] were 11, 3.7 µM and 42 µM.
The like results for `COc1cccc(C(=O)Sc2ccccc2C(=O)NCCC(N)=O)c1` [Compound 14] were, in that order, 251, 2.6 µM and 666 µM.
On to `CC(C)(C)C(=O)Sc1cccc(C(=O)NCCC(N)=O)c1` [Compound 17], for which the EC50 with HIV-1RF (setting [2]) is greater than 100 µM. The midpoint of inhibition in data set [1], the IC50 at 7 days, lay at 112 µM.
Take `NC(=O)CCNC(=O)c1cccc(SC(=O)c2cccnc2)c1` [Compound 18]: the “Therapeutic Index” value in the data set with HIV-1RF (HIV-1RF, CEM-SS cells) is reported as greater than 6.7. For the same compound, in the data set on HIV-1RF (setting [2]), the EC50 turned out to be 149 µM. This compound also displayed an IC50 at 7 days in data set [1] greater than 1000 µM.
As for `NC(=O)CCNC(=O)c1ccccc1SC(=O)c1cccnc1` [Compound 19], the “Therapeutic Index” value in the data set with HIV-1RF (HIV-1RF, CEM-SS cells) is listed as 161. In addition, in the data set with HIV-1RF (setting [2]), the EC50 turned out to be 2.9 µM. For the same compound, the 50% inhibitory concentration (IC50) at 7 days in data set [1] amounted to 461 µM.
The like results for `Cc1cccc(C(=O)Sc2ccccc2C(=O)NCCC(N)=O)c1` [Compound 20] were, in that order, 38, 3.6 µM and 135 µM.
Turning to `Cc1ccc(C(=O)Sc2ccccc2C(=O)NCCC(N)=O)cc1` [Compound 21], the “Therapeutic Index” value with HIV-1RF (HIV-1RF, CEM-SS cells) is recorded as 38. Moreover, in the data set with HIV-1RF (setting [2]), the concentration for a half-maximal effect (EC50) worked out at 5.2 µM. Besides, the IC50 at 7 days in data set [1] was 197 µM.
On to `Cc1cc(C)c(C(=O)Sc2ccccc2C(=O)NCCC(N)=O)c(C)c1` [Compound 24], for which the IC50 at 7 days in data set [1] was greater than 200 µM.
As for `NC(=O)CCNC(=O)c1ccc(Cl)cc1SC(=O)c1cccnc1` [Compound 25], the “Therapeutic Index” value in the data set with HIV-1RF (HIV-1RF, CEM-SS cells) worked out at 18. Moreover, the EC50 in the data set on HIV-1RF (setting [2]) worked out at 31.8 µM. The compound also registered an IC50 at 7 days in data set [1] of 573 µM.
Taken in the same sequence, the figures for `NC(=O)CCNC(=O)c1ccc(Cl)cc1SC(=O)Cc1ccccc1` [Compound 26] were 14, 2.5 µM and 35 µM.
The like results for `CC(C)COC(=O)Sc1ccccc1C(=O)N[C@H](C)C(N)=O` [Compound 77] were, in that order, 168, 1.37 µM and 230 µM.
Taken in the same sequence, the figures for `NS(=O)(=O)c1ccc(CNC(=O)c2ccccc2SC(=O)Oc2ccc([N+](=O)[O-])cc2)cc1` [Compound 78] were 36, 1.58 µM and 57 µM.
In the case of `NC(=O)CNC(=O)c1ccccc1SC(=O)OCCCCCl` [Compound 80], in the data set on HIV-1RF (HIV-1RF, CEM-SS cells), the “Therapeutic Index” value is 65. The EC50 with HIV-1RF (setting [2]) was determined as 3.07 µM. This compound also came in with an IC50 at 7 days in data set [1] of 200 µM.
The like results for `C[C@H](NC(=O)c1ccccc1SC(=O)OCCCCCl)C(N)=O` [Compound 81] were, in that order, 97, 2.07 µM and 200 µM.
The like results for `C[C@@H](NC(=O)c1ccccc1SC(=O)OCCCCCl)C(N)=O` [Compound 82] were, in that order, 68, 2.94 µM and 200 µM.
The like results for `CCC(C)C(NC(=O)c1ccccc1SC(=O)OCCCCCl)C(N)=O` (stereo not shown) [Compound 83] were, in that order, 59, 2.16 µM and 128 µM.
Consider `NS(=O)(=O)c1ccc(CNC(=O)c2ccccc2SC(=O)OCCCCCl)cc1` [Compound 84], for which the “Therapeutic Index” value in the data set with HIV-1RF (HIV-1RF, CEM-SS cells) is recorded as 27. Moreover, in the data set on HIV-1RF (setting [2]), the EC50 was 2.36 µM. This compound had an IC50 at 7 days in data set [1] of 64.4 µM.
The like results for `NC(=O)CNC(=O)c1ccccc1SC(=O)NCCCCl` [Compound 85] were, in that order, 153, 0.72 µM and 110 µM.
Turning to `C[C@H](NC(=O)c1ccccc1SC(=O)NCCCCl)C(N)=O` [Compound 86], the “Therapeutic Index” value with HIV-1RF (HIV-1RF, CEM-SS cells) is on record as 140. In addition, the EC50 in the data set with HIV-1RF (setting [2]) was 0.8 µM. Further, the IC50 at 7 days in data set [1] is 112 µM.
In the case of `C[C@@H](NC(=O)c1ccccc1SC(=O)NCCCCl)C(N)=O` [Compound 87], the “Therapeutic Index” value with HIV-1RF (HIV-1RF, CEM-SS cells) is given as 16. The EC50 with HIV-1RF (setting [2]) is 0.71 µM. In data set [1], this compound yielded an IC50 at 7 days of 11.4 µM.
The like results for `NS(=O)(=O)c1ccc(CNC(=O)c2ccccc2SC(=O)NCCCCl)cc1` [Compound 88] were, in that order, 19, 0.48 µM and 9 µM.
Consider `C[C@@H](NC(=O)c1ccccc1SC(=O)NCCBr)C(N)=O` [Compound 89], for which the “Therapeutic Index” value in the data set with HIV-1RF (HIV-1RF, CEM-SS cells) turned out to be 8.7. For the same compound, in the data set with HIV-1RF (setting [3]), the EC50 came to 0.92 µM. In data set [1], this compound yielded an IC50 at 7 days of 8 µM.
Consider `CCCNC(=O)Sc1ccccc1C(=O)N[C@H](C)C(N)=O` [Compound 95], for which the “Therapeutic Index” value with HIV-1RF (HIV-1RF, CEM-SS cells) is recorded as 27. In the data set with HIV-1RF (setting [2]), the EC50 came out at 0.85 µM. Half-maximal inhibition in data set [1] (IC50 at 7 days) required 22.6 µM.
`CCCNC(=O)Sc1ccccc1C(=O)N[C@@H](C)C(N)=O` [Compound 96]: the “Therapeutic Index” value in the data set with HIV-1RF (HIV-1RF, CEM-SS cells) came to 21. For the same compound, in the data set on HIV-1RF (setting [2]), the concentration giving a half-maximal response (EC50) is 1.32 µM. Moreover, 27.5 µM corresponded to half-maximal inhibition in data set [1] (IC50 at 7 days).
Taken in the same sequence, the figures for `CCCNC(=O)Sc1ccccc1C(=O)NCCC(N)=O` [Compound 97] were 53, 0.55 µM and 29 µM.
Consider `NC(=O)CNC(=O)c1ccccc1SC(=O)OCCBr` [Compound 101], for which the “Therapeutic Index” value in the data set on HIV-1RF (HIV-1RF, CEM-SS cells) is reported as 232. Moreover, the 50% effective concentration (EC50) with HIV-1RF (setting [2]) is 1.36 µM. The same compound came in with a half-inhibitory concentration (IC50) at 7 days in data set [1] greater than 316 µM.
Taken in the same sequence, the figures for `NC(=O)CCNC(=O)c1ccccc1SC(=O)OCCBr` [Compound 102] were 60.6, 5.21 µM and greater than 316 µM.
The like results for `C[C@@H](NC(=O)c1ccccc1SC(=O)OCCBr)C(N)=O` [Compound 103] were, in that order, 76, 3.34 µM and 254 µM.
Taken in the same sequence, the figures for `C[C@H](NC(=O)c1ccccc1SC(=O)OCCBr)C(N)=O` [Compound 104] were 160, 1.16 µM and 186 µM.
As to `NC(=O)CNC(=O)c1ccccc1SC(=O)NCCBr` [Compound 110], the “Therapeutic Index” value in the data set with HIV-1RF (HIV-1RF, CEM-SS cells) worked out at 3.4. Further, the concentration giving a half-maximal response (EC50) with HIV-1RF (setting [3]) worked out at 1.53 µM. In data set [1], the 50% inhibitory concentration (IC50) at 7 days came to 5.23 µM.
Taken in the same sequence, the figures for `NC(=O)CCNC(=O)c1ccccc1SC(=O)NCCBr` [Compound 111] were 10, 0.48 µM and 4.9 µM.
In the case of `C[C@H](NC(=O)c1ccccc1SC(=O)NCCBr)C(N)=O` [Compound 112], the “Therapeutic Index” value in the data set on HIV-1RF (HIV-1RF, CEM-SS cells) is 5. Also, in the data set on HIV-1RF (setting [3]), the EC50 is 1.05 µM. Further, the IC50 at 7 days in data set [1] amounted to 5.2 µM.
Regarding `CCNC(=O)Sc1ccccc1C(=O)NCCC(N)=O` [Compound 113], in the data set on HIV-1RF (HIV-1RF, CEM-SS cells), the “Therapeutic Index” value is 148. Further, the concentration for a half-maximal effect (EC50) in the data set with HIV-1RF (setting [2]) was determined as 0.69 µM. For the same compound, in data set [1], inhibition was half-maximal at 103 µM (IC50 at 7 days).
On to `NC(=O)C1CN1C(=O)c1ccccc1SC(=O)NC1CCCC1` (stereo not shown) [Compound 132], for which the EC50 in the data set with HIV-1RF (HIV-1RF, CEM-SS cells, seven days, XTT) came to 0.81 µM.

As usually defined, the EC50 is the concentration needed to bring the measured effect to its halfway point. As usually defined, the IC50 is the concentration that inhibits the measured activity by half. A lower IC50 goes with greater potency in that assay.
